The source of these data is patent publication US5589510A, “Method for inhibiting retroviral infection by administering a naphthalenesulfonic acid compound” (priority 1995, dated 1996).

As a reminder, the LD50 is the dose at which mortality reaches 50%. High values mean lower toxicity, low ones greater toxicity. A word on the inhibition: it is the percentage by which the read-out fell short of the control.

The structures appear in SMILES notation. Read-outs that look alike come from different tables or passages of the source.

In data set [1] the test system is TA98, TA1535, TA1537, TA1538, TA100 and W2P2uvr. Put plainly: Ames Test (in the presence of S9). Format: cell-based, Salmonella typhimurium. The source says: Six Salmonella typhimuriumstrai strains, TA98, TA1535, TA1537, TA1538, TA100 and W2P2uvr were used in this experiment.
The nature of the next data set: LD50, intravenous, mice. Format: in vivo. The settings on record: mouse, in vivo, female mice, mortalities within 1 week. As for the experimental part:
The test material was administered intravenously to 5 female mice in five increasing doses. Mortalities were recorded within 1 week, and the LD50 was determined with the aid of statistical calculations.

Data set [2] has as its target T1, recombinant reverse transcriptase (RT) (Human immunodeficiency virus type 1 group M subtype B, UniProt P04585).
T1 construct: purchased Worthington Biochemical Corporation
Put plainly: Reverse transcriptase inhibition assay. The format is biochemical, HIV-1. As for the experimental part: Inhibition of recombinant reverse transcriptase (RT) was performed by using commercially available Boehringer Mannheim RT assay kit (Cat. No. 1468 120) based on incorporation of digoxigenin labeled dUTP into DNA. Recombinant enzyme from HIV-1 was purchased from Worthington Biochemical Corporation. The level of anti-RT activity in the sample was determined by measurement of absorbance using an ELISA reader at 405 nm.

For another data set, the system named is HIV-1 RF. Put plainly: Antiviral assay, Experimental Protocol I (compound added after infection). The settings on record: Human immunodeficiency virus 1, 240 h, p24 ELISA, read-out: % Inhibition (after day 10); for inhibition at 1.25 µg/mL: 1.25 μg/ml; for inhibition at 2.5 µg/mL: 2.5 μg/ml; for inhibition at 5 µg/mL: 5 μg/ml; for inhibition at 0.6 µg/mL: 0.6 μg/ml. The format is cell-based. As for the experimental part: HIV-1 infectivity studies were conducted in CEM, H9, MT2 cells and peripheral blood mononuclear cells (PBMC). CEM, H9 and MT2 were grown in RPMI1640 medium, 10% heat-inactivated fetal bovine serum (FBS). PBMCs were stimulated with 4 μg/ml PHA for 48 hours in RPMI1640, 10% FBS before HIV-1 infection. After HIV-1 infection, PBMCs were maintained in RPMI 1640, 10% FBS and 10 10 units/ml IL-2. The major HIV-1 isolates used were MN, IIIB, SF2, AZT-sensitive A018 and AZT-resistant A018 provided by NIH AIDS research and reference reagent program. Two major antiviral assays were developed to determine the antiviral activities of the compounds of this invention (as inhibitors).
I. The cells were infected with HIV-1 RF or IIIB at an infectivity multiplicity (moi) of 0.001 in the absence of a compound of this invention for one hour. HIV-1 infected cells were washed once with PBS, resuspended in RPMI1640, 10% FBS medium and distributed in 24-well culture dishes (5×10^5 cells per well) in the presence of a compound of this invention as inhibitor. […]
For orientation: In an ELISA, binding on a coated surface is turned into a signal by an enzyme label.

In another data set the test system is HIV-1 patient isolate IH. Put plainly: Inhibition of HIV-1 patient isolate IH in PBMCs. The format is cell-based. As to conditions: Human immunodeficiency virus 1, PBMC, 288 h, read-out: % Inhibition (after day 12); for inhibition at 5 µg/mL: 5 μg/ml; for inhibition at 10 µg/mL: 10 μg/ml; for inhibition at 20 µg/mL: 20 μg/ml; for inhibition at 2.5 µg/mL: 2.5 μg/ml. As for the experimental part:
The inhibitory effects of additional naphthalenesulfonic acid compounds were tested as follows: Experimental Details:
PBMCs were activated for 48 hours in conditioned medium containing PHA at a concentration of 4 μg/ml. […] The test compound, previously dissolved in a glucose solution (1 mg/ml), was then added to each of the wells to achieve the appropriate concentration. The plate was then incubated overnight (about 15 hours) after which 50 μl of cell-free HIV-1 patient isolate was added to each well. The plates were incubated for further 6 to 8 hours after which all free floating solution of virus was washed off. Washing was performed four times.
After removal of the virus, all cultures were resuspended in conditioned medium containing 10% FCS.
For control experiments virus growth was monitored in either 10% FCS or 50% FCS throughout the observation period (15 days).

For the molecule `CCC(C)(C)c1ccc(OCC(=O)Nc2cc(S(=O)(=O)O)cc3cc(S(=O)(=O)O)c(N=Nc4cc(OC)c(N=Nc5c(S(=O)(=O)O)cc6cc(S(=O)(=O)O)cc(NC(C)=O)c6c5O)cc4OC)c(O)c23)c(C(C)(C)CC)c1` [Compound 3], in data set [1], the “Ames Test result” value was “Negative”. Further, the LD50 at 168 h in the data set “LD50, intravenous, mice” came to 150 mg/kg. Besides, the inhibition at 0.5 µM in data set [2] amounted to 77%. In the data set on HIV-1 RF (10% FCS), the inhibition at 1.25 µg/mL came out at 96%, the inhibition at 2.5 µg/mL came out at 100% and the inhibition at 5 µg/mL came to 100%.
Regarding `COc1cc(N=Nc2c(S(=O)(=O)O)cc3cc(S(=O)(=O)O)cc(NC(=O)c4cccc(Cl)c4Cl)c3c2O)c(OC)cc1N=Nc1c(S(=O)(=O)O)cc2cc(S(=O)(=O)O)cc(NC(=O)COc3ccccc3)c2c1O` [Compound 4], the “Ames Test result” value in data set [1] is on record as “Negative”. This molecule also registered an LD50 at 168 h in the data set “LD50, intravenous, mice” of 160 mg/kg. Moreover, in the data set with HIV-1 patient isolate IH (10% FCS), the inhibition at 5 µg/mL was found to be 60%, the inhibition at 10 µg/mL stood at 88% and the inhibition at 20 µg/mL is 98%.
Regarding `COc1cc(N=Nc2c(S(=O)(=O)O)cc3cc(S(=O)(=O)O)cc(NC(=O)c4ccccc4)c3c2O)c(OC)cc1N=Nc1c(S(=O)(=O)O)cc2cc(S(=O)(=O)O)cc(NC(C)=O)c2c1O` [Compound 5], the “Ames Test result” value in data set [1] is “Negative”. The median lethal dose (LD50) at 168 h in the data set “LD50, intravenous, mice” came to 120 mg/kg. Further, in the data set with HIV-1 RF (10% FCS), the inhibition at 0.6 µg/mL worked out at 45%, the inhibition at 1.25 µg/mL is 87%, the inhibition at 2.5 µg/mL was determined as 100% and the inhibition at 5 µg/mL is 100%. Further, in the data set on HIV-1 patient isolate IH (10% FCS), the inhibition at 5 µg/mL was 45%, the inhibition at 10 µg/mL was determined as 77% and the inhibition at 20 µg/mL worked out at 77%.
For `COc1cc(N=Nc2c(S(=O)(=O)O)cc3cc(S(=O)(=O)O)cc(NC(=O)c4cc(Cl)ccc4Cl)c3c2O)c(OC)cc1N=Nc1c(S(=O)(=O)O)cc2cc(S(=O)(=O)O)cc(NC(=O)c3cc(Cl)ccc3Cl)c2c1O` [Compound 7], the “Ames Test result” value in data set [1] was “Positive”. Further, the “Ames Test, specific mutagenic activity” value in data set [1] (unit as printed for Compound 7) came to 0.05 colony no/g g. The LD50 at 168 h in the data set “LD50, intravenous, mice” was found to be 170 mg/kg. Besides, in data set [2], the inhibition at 0.5 µM came out at 41% and the inhibition at 5 µM was 75%. For the same molecule, in the data set with HIV-1 RF (10% FCS), the inhibition at 0.6 µg/mL is 81%, the inhibition at 1.25 µg/mL was determined as 99%, the inhibition at 2.5 µg/mL was found to be 100% and the inhibition at 5 µg/mL turned out to be 100%. Besides, in the data set on HIV-1 RF (50% Human Serum), the inhibition at 0.6 µg/mL worked out at 0%, the inhibition at 1.25 µg/mL came out at 0%, the inhibition at 2.5 µg/mL is 48% and the inhibition at 5 µg/mL was found to be 97%.
For the molecule `COc1cc(N=Nc2c(S(=O)(=O)O)cc3cc(S(=O)(=O)O)cc(NC(=O)c4ccc(Cl)c(Cl)c4)c3c2O)c(OC)cc1N=Nc1c(S(=O)(=O)O)cc2cc(S(=O)(=O)O)cc(NC(=O)c3ccc(Cl)c(Cl)c3)c2c1O` [Compound 10], the “Ames Test result” value in data set [1] is “Negative”. The molecule further registered a median lethal dose (LD50) at 168 h in the data set “LD50, intravenous, mice” of 140 mg/kg. In data set [2], the inhibition at 0.5 µM is 55%.
As for `COc1cc(N=Nc2c(S(=O)(=O)O)cc3cc(S(=O)(=O)O)cc(NC(=O)c4cc(Cl)ccc4Cl)c3c2O)c(OC)cc1N=Nc1c(S(=O)(=O)O)cc2cc(S(=O)(=O)O)cc(NC(=O)c3ccc(Cl)c(Cl)c3)c2c1O` [Compound 12], in data set [1], the “Ames Test result” value is reported as “Negative”. This molecule also showed a median lethal dose (LD50) at 168 h in the data set “LD50, intravenous, mice” of 190 mg/kg. In addition, in the data set with HIV-1 RF (10% FCS, 0.3 μg/ml), the inhibition at 0.3 µg/mL was determined as 86%. Moreover, in the data set on HIV-1 RF (10% FCS), the inhibition at 0.6 µg/mL turned out to be 96%, the inhibition at 1.25 µg/mL came out at 99%, the inhibition at 2.5 µg/mL is 100% and the inhibition at 5 µg/mL stood at 100%. Besides, in the data set on HIV-1 RF (50% Human Serum), the inhibition at 0.6 µg/mL amounted to 0%, the inhibition at 1.25 µg/mL was 0%, the inhibition at 2.5 µg/mL is 40% and the inhibition at 5 µg/mL worked out at 93%. In the data set with HIV-1 patient isolate IH (10% FCS), the inhibition at 2.5 µg/mL is 0%, the inhibition at 5 µg/mL came to 85%, the inhibition at 10 µg/mL was determined as 100% and the inhibition at 20 µg/mL worked out at 100%. Besides, in the data set on HIV-1 patient isolate IH (50% Human Serum), the inhibition at 2.5 µg/mL was determined as 0%, the inhibition at 5 µg/mL was 0%, the inhibition at 10 µg/mL is 90% and the inhibition at 20 µg/mL is 93%.
Take `COc1cc(N=Nc2c(S(=O)(=O)O)cc3cc(S(=O)(=O)O)cc(NC(=O)c4cccc5ccccc45)c3c2O)c(OC)cc1N=Nc1ccc2cc(S(=O)(=O)O)cc(NC(=O)c3ccccc3)c2c1O` [Compound 13]: the “Ames Test result” value in data set [1] is “Negative”. This molecule came in with an LD50 at 168 h in the data set “LD50, intravenous, mice” of 160 mg/kg. In the data set with HIV-1 patient isolate IH (10% FCS), the inhibition at 5 µg/mL worked out at 55%, the inhibition at 10 µg/mL worked out at 70% and the inhibition at 20 µg/mL is 100%.
For `COc1cc(N=Nc2c(S(=O)(=O)O)cc3cc(S(=O)(=O)O)cc(NC(=O)Nc4cccc5ccccc45)c3c2O)c(OC)cc1N=Nc1c(S(=O)(=O)O)cc2cc(S(=O)(=O)O)cc(NC(C)=O)c2c1O` [Compound 16], in data set [1], the “Ames Test result” value is listed as “Positive”. The “Ames Test, specific mutagenic activity” value in data set [1] (the higher the value, the higher the mutagenicity) amounted to 0.03 colony no/μg. Further, the LD50 at 168 h in “LD50, intravenous, mice” is 160 mg/kg. For the same molecule, the inhibition at 5 µM in data set [2] amounted to 98%.
With `COc1cc(N=Nc2c(S(=O)(=O)O)cc3cc(S(=O)(=O)O)cc(NC(=O)c4ccc(Cl)cc4Cl)c3c2O)c(OC)cc1N=Nc1c(S(=O)(=O)O)cc2cc(S(=O)(=O)O)cc(NC(=O)Cc3ccc(Cl)cc3)c2c1O` [Compound 18], the “Ames Test result” value in data set [1] is “Negative”. The 50% lethal dose (LD50) at 168 h in the data set “LD50, intravenous, mice” is 135 mg/kg. Also, the inhibition at 5 µM in data set [2] came out at 66%.
As to `COc1cc(N=Nc2c(S(=O)(=O)O)cc3cc(S(=O)(=O)O)cc(NC(=O)c4cccc(Cl)c4Cl)c3c2O)c(OC)cc1N=Nc1c(S(=O)(=O)O)cc2cc(S(=O)(=O)O)cc(NC(=O)c3ccccc3Cl)c2c1O` [Compound 21], the “Ames Test result” value in data set [1] is recorded as “Negative”. In addition, the LD50 at 168 h in the data set “LD50, intravenous, mice” is 160 mg/kg. For the same molecule, in the data set on HIV-1 patient isolate IH (10% FCS), the inhibition at 2.5 µg/mL came out at 0%, the inhibition at 5 µg/mL is 23%, the inhibition at 10 µg/mL came out at 77% and the inhibition at 20 µg/mL amounted to 100%. In the data set with HIV-1 patient isolate IH (50% Human Serum), the inhibition at 2.5 µg/mL stood at 10%, the inhibition at 5 µg/mL came to 23%, the inhibition at 10 µg/mL stood at 61% and the inhibition at 20 µg/mL is 100%.
